# Data taken from ChEMBL document CHEMBL1649437, “Inhaled voriconazole for prevention of invasive pulmonary aspergillosis” (Antimicrob Agents Chemother, 2009).
# Active and inactive are the calls of the source. The calls are words filed in the database; no cut-off is given here.
# Assays:
# Aspergillus fumigatus [1] = experiment: Antifungal activity against Aspergillus fumigatus isolate Af293 infected in immunosuppressed ICR mouse assessed as pulmonary fungal burden at 1 mg/kg, ip once daily administered 1 day post infection measured on day 8 by real-time quantitative PCR; format: functional; conditions: route intraperitoneal
# Aspergillus fumigatus [2] = experiment: Antifungal activity against Aspergillus fumigatus isolate Af293 infected in immunosuppressed ICR mouse assessed as conidial equivalents per gram of tissue at 1 mg/kg, ip once daily administered 1 day post infection measured on day 8 by real-time quantitative PCR; format: functional; conditions: route intraperitoneal
# Aspergillus fumigatus [3] = experiment: Antifungal activity against Aspergillus fumigatus isolate Af293 infected in immunosuppressed ICR mouse assessed as increased survival of mouse at 1 mg/kg, ip once daily until day 7; format: functional; conditions: route intraperitoneal
# Aspergillus fumigatus [4] = experiment: Antifungal activity against Aspergillus fumigatus isolate Af293 infected in immunosuppressed ICR mouse assessed as increased survival of mouse at 1 mg/kg, ip once daily until day 12; format: functional; conditions: route intraperitoneal
# Aspergillus fumigatus [5] = experiment: Antifungal activity against Aspergillus fumigatus isolate Af293 infected in immunosuppressed ICR mouse assessed as median survival time at 1 mg/kg, ip once daily; format: functional; conditions: route intraperitoneal
# Aspergillus fumigatus [6] = experiment: Antifungal activity against Aspergillus fumigatus isolate Af293 infected in immunosuppressed ICR mouse assessed as median survival time at 3 mg/kg, ip once daily; format: functional; conditions: route intraperitoneal
# Aspergillus fumigatus [7] = experiment: Antifungal activity against Aspergillus fumigatus isolate Af293 infected in immunosuppressed ICR mouse assessed as decrease in invasive lung disease at 6.25 mg/ml twice daily administered 2 days prior to infection via nebulization measured on day 8 by light microscopic analysis; format: functional, organism-based
# Aspergillus fumigatus [8] = experiment: Antifungal activity against Aspergillus fumigatus isolate Af293 infected in immunosuppressed ICR mouse assessed as assessed as decrease in invasive lung disease at 1 mg/kg, ip once daily measured on day 8 by light microscopic analysis; format: functional, organism-based; parameters: dose 1 mg/kg
# Aspergillus fumigatus [9] = experiment: Antifungal activity against Aspergillus fumigatus isolate Af293 infected in immunosuppressed ICR mouse assessed as decreased lung vascular damage at 1 mg/kg, ip once daily measured on day 8 by histopathological analysis; format: functional, organism-based; parameters: dose 1 mg/kg
# Aspergillus fumigatus [10] = experiment: Antifungal activity against Aspergillus fumigatus isolate Af293 infected in immunosuppressed ICR mouse assessed as assessed as decrease in invasive lung disease at 1 mg/kg, ip once daily measured on day 12 by light microscopic analysis; format: functional, organism-based; parameters: dose 1 mg/kg
# Aspergillus fumigatus [11] = experiment: Antifungal activity against Aspergillus fumigatus isolate Af293 infected in immunosuppressed ICR mouse assessed as decreased lung vascular damage at 1 mg/kg, ip once daily measured on day 12 by histopathological analysis; format: functional, organism-based; parameters: dose 1 mg/kg
# Mus musculus [12] = experiment: Toxicity in immunosuppressed ICR mouse assessed as lung injury at 6.25 mg/ml twice daily administered 2 days prior to infection via nebulization; format: organism-based; conditions: in vivo, inhaled_or_intranasal, 48 h
# Aspergillus fumigatus [13] = experiment: Antifungal activity against Aspergillus fumigatus isolate Af293 infected in immunosuppressed ICR mouse assessed as pulmonary fungal burden at 6.25 mg/ml twice daily administered 2 days prior to infection via nebulization measured on day 8 by real-time quantitative PCR; format: functional
# Aspergillus fumigatus [14] = experiment: Antifungal activity against Aspergillus fumigatus isolate Af293 infected in immunosuppressed ICR mouse assessed as conidial equivalents per gram of tissue at 6.25 mg/ml twice daily administered 2 days prior to infection via nebulization measured on day 8 by real-time quantitative PCR; format: functional
# Aspergillus fumigatus [15] = experiment: Antifungal activity against Aspergillus fumigatus isolate Af293 infected in immunosuppressed ICR mouse assessed as increased survival of mouse at 6.25 mg/ml twice daily administered 2 days prior to infection via nebulization until day 7 (Rvb= 25%); format: functional
# Aspergillus fumigatus [16] = experiment: Antifungal activity against Aspergillus fumigatus isolate Af293 infected in immunosuppressed ICR mouse assessed as increased survival of mouse at 6.25 mg/ml twice daily administered 2 days prior to infection via nebulization until day 12 (Rvb= 17%); format: functional
# Aspergillus fumigatus [17] = experiment: Antifungal activity against Aspergillus fumigatus isolate Af293 infected in immunosuppressed ICR mouse assessed as median survival time at 6.25 mg/ml twice daily 2 days prior to infection via nebulization; format: functional
# Aspergillus fumigatus [18] = experiment: Antifungal activity against Aspergillus fumigatus isolate Af293 infected in immunosuppressed ICR mouse assessed as decreased lung vascular damage at 6.25 mg/ml twice daily administered 2 days prior to infection via nebulization measured on day 8 by histopathological analysis; format: functional, organism-based
# Aspergillus fumigatus [19] = experiment: Antifungal activity against Aspergillus fumigatus isolate Af293 infected in immunosuppressed ICR mouse assessed as decrease in invasive lung disease at 6.25 mg/ml twice daily administered 2 days prior to infection via nebulization measured on day 12 by light microscopic analysis; format: functional, organism-based
# Aspergillus fumigatus [20] = experiment: Antifungal activity against Aspergillus fumigatus isolate Af293 infected in immunosuppressed ICR mouse assessed as decreased lung vascular damage at 6.25 mg/ml twice daily administered 2 days prior to infection via nebulization measured on day 12 by histopathological analysis; format: functional, organism-based
# [21] = Cmax in mouse lung; format: ADME, organism-based
# [22] = Cmax in mouse serum; format: ADME, organism-based
# Mus musculus [23] = experiment: Toxicity in immunosuppressed ICR mouse assessed as inflammatory changes at 6.25 mg/ml twice daily administered 2 days prior to infection via nebulization; format: organism-based; conditions: in vivo, inhaled_or_intranasal, 48 h
smiles,measurement,setting,value
C[C@@H]1[C@H](O)[C@@H](C)/C=C/C=C/C=C/C=C/C=C/C=C/C=C/[C@H](O[C@@H]2O[C@H](C)[C@@H](O)[C@H](N)[C@@H]2O)C[C@@H]2O[C@](O)(C[C@@H](O)C[C@@H](O)[C@H](O)CC[C@@H](O)C[C@@H](O)CC(=O)O[C@H]1C)C[C@H](O)[C@H]2C(=O)O [AMPHOTERICIN B],log10cfu,Aspergillus fumigatus [1],4.33
same,Activity,Aspergillus fumigatus [2],5.26
same,Activity,Aspergillus fumigatus [3],31%
same,Activity,Aspergillus fumigatus [4],23%
same,Time,Aspergillus fumigatus [5],7 days
same,Activity,Aspergillus fumigatus [6],50%
same,Activity,Aspergillus fumigatus [7],Active
same,Activity,Aspergillus fumigatus [8],inactive
same,Activity,Aspergillus fumigatus [9],inactive
same,Activity,Aspergillus fumigatus [10],inactive
same,Activity,Aspergillus fumigatus [11],inactive
C[C@@H](c1ncncc1F)[C@](O)(Cn1cncn1)c1ccc(F)cc1F [VORICONAZOLE],Activity,Mus musculus [12],Non-toxic
same,log10cfu,Aspergillus fumigatus [13],4.21
same,Activity,Aspergillus fumigatus [14],5.24
same,Activity,Aspergillus fumigatus [15],92%
same,Activity,Aspergillus fumigatus [16],67%
same,Time,Aspergillus fumigatus [17],>12 days
same,Activity,Aspergillus fumigatus [18],Active
same,Activity,Aspergillus fumigatus [19],Active
same,Activity,Aspergillus fumigatus [20],Active
same,Cmax,[21],6730 ng/g
same,Cmax,[22],2320 ng/mL
same,Activity,Mus musculus [23],Non-toxic
